According to patent US20150011466A1, “APJ Receptor Compounds” (priority 2012, published 2015):
Where a SMILES comes first, the peptide text is derived from it. [ ]: non-standard residue; d: D form. The star is where a group is joined. Palmitoyl = CCCCCCCCCCCCCCCC(=O)*

Tests used:
[1] = system: Human TRex cells not induced, do not express the APJ receptor; assay: HTRF cAMP assay in Human TRex cells not induced (no APJ receptor); format: cell-based
Description: cAMP kits based on a competitive immunoassay using cryptate-labeled anti-cAMP antibody and d2-labeled cAMP were used to assay the effects of APJ compounds of the present invention. This assay measures the increase in intracellular cAMP upon Gs-coupled receptor activation as well as decrease in forskolin (or a more soluble version of forskolin—NKH477) stimulated increase in cAMP upon Gi-coupled receptor activation. […] Cells are treated with lnG/mL doxycycline and seeded in all white 96 well plates @ 40 k/well overnight.

[2] = Histimine (% vs. 48/40)
[3] = target: T1, APJ receptor (Homo sapiens, UniProt P35414); assay: HTRF cAMP assay, inhibition of NKH477 stimulated cAMP in Human TRex cells expressing APJ upon doxycycline induction (APJ-hTREX); format: cell-based; conditions: for Ranking: class combining EC50 and % histamine; for percent intrinsic activity at 0.3 µM: read-out: % IA (@ 300 nM)
T1 construct: expressed in transfected cells; host or cells: Human TRex cells (doxycycline-inducible)
T1 sequence (P35414 1-380): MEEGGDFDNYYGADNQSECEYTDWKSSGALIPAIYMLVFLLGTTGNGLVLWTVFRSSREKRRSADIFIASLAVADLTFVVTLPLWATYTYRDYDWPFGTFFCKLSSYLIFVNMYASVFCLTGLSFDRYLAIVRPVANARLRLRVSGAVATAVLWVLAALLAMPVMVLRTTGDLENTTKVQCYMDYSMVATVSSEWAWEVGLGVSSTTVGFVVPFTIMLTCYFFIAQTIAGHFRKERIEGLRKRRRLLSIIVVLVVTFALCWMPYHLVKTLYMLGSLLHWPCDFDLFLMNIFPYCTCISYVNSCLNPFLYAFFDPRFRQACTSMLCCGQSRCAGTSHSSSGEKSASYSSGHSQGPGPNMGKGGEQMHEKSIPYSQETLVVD
Outline: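 Cells stimulated with NKH477 and cAMP measured by HTRF competitive immunoassay (cryptate anti-cAMP antibody, d2-labeled cAMP). APJ-hTREX cells induced with […] doxycycline and seeded overnight at 40 k/well.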

[4] = target: T2, Gi-coupled receptor APJ (Homo sapiens, UniProt P35414); assay: HTRF cAMP assay, inhibition of NKH477 stimulated cAMP in HEK cells stably expressing APJ (APJ-h HEK 293 cells); format: cell-based; conditions: for inhibition of NKH477 stimulated increase in cAMP (concentration response curves, FIGS. 1A-1E): HEK cells stably expressing APJ
T2 sequence (P35414 1-380): T1 sequence (P35414 1-380)
From the text: HTRF (homogeneous time resolved fluorescence) is a technology developed by Cisbio Bioassays based on TR-FRET (time-resolved fluorescence resonance energy transfer). Cisbio Bioassays has developed a wide selection of HTRF-based assays compatible with whole cells, thereby enabling functional assays to run under more physiological conditions. The IP-One assays are competitive immunoassays using cryptate-labeled anti-IP1 monoclonal antibody and d2-labeled IP1. IP1 is a relatively stable downstream metabolite of IP3, and accumulates in cells following Gq receptor activation.
cAMP kits based on a competitive immunoassay using cryptate-labeled anti-cAMP antibody and d2-labeled cAMP were used to assay the effects of APJ compounds of the present invention. […] Cells are treated with […] doxycycline and seeded in all white 96 well plates @ 40 k/well overnight.

[5] = target: T3, APJ receptor (β-arrestin recruitment) (Homo sapiens, UniProt P35414); assay: β-Arrestin signaling assay (DiscoveRx PathHunter, enzyme fragment complementation); format: cell-based
T3 sequence (P35414 1-380): T1 sequence (P35414 1-380)
From the text: Activation of the β-Arrestin signaling pathway was monitored using the commercially available DiscoveRx PathHunter® assay. This assay employs a homogenous, non-imaging assay format called Enzyme Fragment Complementation (EFC) using β-galactosidase (β-Gal) as the functional reporter. […] EA is fused to β-Arrestin and ED is fused to the GPCR of interest. When the GPCR is activated and β-Arrestin is recruited to the receptor, ED and EA complementation occurs, restoring βGal activity which is measured using chemiluminescent PathHunter® Detection Reagent.

SMILES	inhibition of NKH477 stimulated cAMP [1]	Histimine (% vs. 48/40) [2] [%]	EC50 [3] [nM]	Ranking [3]	percent intrinsic activity at 0.3 µM [3] [%]	inhibition of NKH477 stimulated increase in cAMP (concentration response curves, FIGS. 1A-1E) [4]	EC50 [4] [nM]	EC50 [5] [nM]	β-arrestin recruitment (dose dependent increase in chemiluminescence) ([5]; in words)	Emax ([5]; read-out: β-arrestin Signaling Max Response) [%]
CSCC[C@H](NC(=O)[C@@H]1CCCN1C(=O)CNC(=O)[C@H](CCCCN)NC(=O)[C@H](Cc1c[nH]cn1)NC(=O)[C@H](CO)NC(=O)[C@H](CC(C)C)NC(=O)[C@H](CCCNC(=N)N)NC(=O)[C@@H]1CCCN1C(=O)[C@H](CCCNC(=N)N)NC(=O)[C@@H](N)CCC(N)=O)C(=O)N1CCC[C@H]1C(=O)N[C@@H](Cc1ccccc1)C(=O)O [Apelin]	does not inhibit	–	–	–	–	–	–	–	–	–
CCCCCCCCCCCCCCCC(=O)N[C@H](C(=O)N[C@H](C(=O)N[C@@H](Cc1ccccc1)C(=O)N[C@@H](CCCNC(=N)N)C(=O)N[C@@H](CO)C(=O)N[C@@H](CO)C(=O)N[C@@H](CCC(=O)O)C(=O)N[C@H](CCCCN)C(=O)N[C@@H](CCCNC(=N)N)C(=O)N[C@@H](CCCNC(=N)N)C(=O)N[C@@H](CO)C(=O)N[C@@H](C)C(=O)N[C@@H](CC(=O)O)C(=O)N[C@H](C(=O)N[C@@H](Cc1ccccc1)C(=O)N[C@H](C(N)=O)[C@@H](C)CC)[C@@H](C)CC)C(C)C)[C@@H](C)O [Compound 1] (Palmitoyl-TVFRSSE[dK]RRSADIFI-NH2)	–	33	56.7	***** (EC50<100 nM and % histamine<35%)	81	in a dose dependent manner	–	–	–	–
CCCCCCCCCCCCCCCC(=O)N[C@H](C(=O)N[C@H](C(=O)N[C@@H](Cc1c[nH]cn1)C(=O)N[C@@H](CCCNC(=N)N)C(=O)N[C@@H](CO)C(=O)N[C@@H](CO)C(=O)N[C@@H](CCC(=O)O)C(=O)N[C@H](CCCCN)C(=O)N[C@@H](CCCNC(=N)N)C(=O)N[C@@H](CCCNC(=N)N)C(=O)N[C@@H](CO)C(=O)N[C@@H](C)C(=O)N[C@@H](CC(=O)O)C(=O)N[C@H](C(=O)N[C@@H](Cc1ccccc1)C(=O)N[C@H](C(N)=O)[C@@H](C)CC)[C@@H](C)CC)C(C)C)[C@@H](C)O [Compound 9] (Palmitoyl-TVHRSSE[dK]RRSADIFI-NH2; C-terminus assumed)	–	36	79.6	*** (EC50<100 nM and % histamine>35%)	75	–	79	2260	weakly engaged	22
CCCCCCCCCCCCCCCC(=O)N[C@@H](CCC(N)=O)C(=O)N[C@H](C(=O)N[C@@H](Cc1ccccc1)C(=O)N[C@@H](CCCNC(=N)N)C(=O)N[C@@H](CO)C(=O)N[C@@H](CO)C(=O)N[C@@H](CCC(=O)O)C(=O)N[C@H](CCCCN)C(=O)N[C@@H](CCCNC(=N)N)C(=O)N[C@@H](CCCNC(=N)N)C(=O)N[C@@H](CO)C(=O)N[C@@H](C)C(=O)N[C@@H](CC(=O)O)C(=O)N[C@H](C(=O)N[C@@H](Cc1ccccc1)C(=O)N[C@H](C(N)=O)[C@@H](C)CC)[C@@H](C)CC)C(C)C [Compound 20] (Palmitoyl-QVFRSSE[dK]RRSADIFI-NH2)	–	29	60.7	***** (EC50<100 nM and % histamine<35%)	61	in a dose dependent manner	–	–	–	–
CCCCCCCCCCCCCCCC(=O)N[C@H](C(=O)N[C@H](C(=O)N[C@@H](Cc1ccccc1)C(=O)N[C@@H](CCCNC(=N)N)C(=O)N[C@@H](CO)C(=O)N[C@@H](CCC(N)=O)C(=O)N[C@@H](CCC(=O)O)C(=O)N[C@H](CCCCN)C(=O)N[C@@H](CCCNC(=N)N)C(=O)N[C@@H](CCCNC(=N)N)C(=O)N[C@@H](CO)C(=O)N[C@@H](C)C(=O)N[C@@H](CC(=O)O)C(=O)N[C@H](C(=O)N[C@@H](Cc1ccccc1)C(=O)N[C@H](C(N)=O)[C@@H](C)CC)[C@@H](C)CC)C(C)C)[C@@H](C)O [Compound 24] (Palmitoyl-TVFRSQE[dK]RRSADIFI-NH2)	–	22	42.6	***** (EC50<100 nM and % histamine<35%)	70	in a dose dependent manner	–	–	–	–
CCCCCCCCCCCCCCCC(=O)NCC(=O)N[C@H](C(=O)N[C@@H](Cc1ccccc1)C(=O)N[C@@H](CCCNC(=N)N)C(=O)N[C@@H](CO)C(=O)N[C@@H](CO)C(=O)N[C@@H](CCC(=O)O)C(=O)N[C@H](CCCCN)C(=O)N[C@@H](CCCNC(=N)N)C(=O)N[C@@H](CCCNC(=N)N)C(=O)N[C@@H](CO)C(=O)N[C@@H](C)C(=O)N[C@@H](CC(=O)O)C(=O)N[C@H](C(=O)N[C@@H](Cc1ccccc1)C(=O)N[C@H](C(N)=O)[C@@H](C)CC)[C@@H](C)CC)C(C)C [Compound 68] (Palmitoyl-GVFRSSE[dK]RRSADIFI-NH2)	–	21	56.4	***** (EC50<100 nM and % histamine<35%)	69	in a dose dependent manner	–	–	–	–
CCCCCCCCCCCCCCCC(=O)N[C@H](C(=O)N[C@H](C(=O)NCC(=O)N[C@@H](CCCNC(=N)N)C(=O)N[C@@H](CO)C(=O)N[C@@H](CO)C(=O)N[C@@H](CCC(=O)O)C(=O)N[C@H](CCCCN)C(=O)N[C@@H](CCCNC(=N)N)C(=O)N[C@@H](CCCNC(=N)N)C(=O)N[C@@H](CO)C(=O)N[C@@H](C)C(=O)N[C@@H](CC(=O)O)C(=O)N[C@H](C(=O)N[C@@H](Cc1ccccc1)C(=O)N[C@H](C(N)=O)[C@@H](C)CC)[C@@H](C)CC)C(C)C)[C@@H](C)O [Compound 70] (Palmitoyl-TVGRSSE[dK]RRSADIFI-NH2)	–	29	52.5	***** (EC50<100 nM and % histamine<35%)	81	in a dose dependent manner	–	–	–	–
